Where a name gives a salt, the structure may show the parent alone.

In this assay the test system is spontaneously hypertensive rats. In words: Hypotensive activity in spontaneously hypertensive rats (mean arterial blood pressure). To be noted: gavage, about 100 mg/kg or less, two doses 24 hours apart, measured at about 28 hours; average MABP of the SHR 170 ±1.5 mm Hg; number of rats in parentheses. Format: in vivo, spontaneously hypertensive rats of the Okamoto strain. As for the experimental part:
Hypotensive Activity in Spontaneously Hypertensive Rats
The novel compounds of the present invention are active hypotensive agents and were tested for hypotensive activity by the method of P. S. Chan and D. Poorvin, Clinical and Experimental Hypertension, 1 (6), 817-830 (1979). Male, 16 week old, spontaneously hypertensive rats of the Okamoto strain, from Taconic Farms, Germantown, N.Y., having an average mean arterial blood pressure of 170 ±1.5 mm of mercury are used in the test. One to 3 rats are used per test compound. A rat is dosed by gavage with a test compound, suspended in approximately 2% pre-boiled starch at a concentration of about 50 mg/ml, at a dose of about 100 mg/kg of body weight or less, with approximately 0.9% sodium chloride loading at a dose of about 25 ml/kg of body weight. A second identical dose of the test compound, without sodium chloride loading, is given about 24 hours later. At about 28 hours after the initial dose the mean arterial blood pressure is measured by the method of Chan and Poorvin vide supra. The procedure is repeated in a second and third rat when necessary.
As for `O=C(NCCCCn1cncn1)c1ccccc1-c1ccccc1` [Example 6, N--[4-(1H--1,2,4-triazol-1-yl)butyl] [1,1'-biphenyl]-2-carboxamide, fumarate], the “MABP (mean arterial blood pressure)” value is given as 145 mm Hg.
The same measure for `O=C(NCCCn1cncn1)c1ccc(Cl)c(Cl)c1` [Example 12, 3,4-Dichloro-N-[3-(1H-1,2,4-triazol-1-yl)propyl]benzamide]: 150 mm Hg; for `O=C(NCCCn1cncn1)c1ccccc1` [Example 24, N--[3-(1H--1,2,4-triazol-1-yl)propyl]benzamide]: 124 mm Hg; for `CS(=O)(=O)c1ccc(C(=O)NCCCn2cncn2)cc1` [Example 32, 4-(methylsulfonyl)-N--[3-(1H--1,2,4-triazol-1-yl)propyl]benzamide]: 110 mm Hg.
On to `O=C(NCCCCn1cncn1)c1ccc(Cl)c(Cl)c1` [Example 5, 3,4-Dichloro-N-[4-(1H-1,2,4-triazol-1-yl)butyl]benzamide], for which the “MABP (mean arterial blood pressure)” value was found to be 141 mm Hg.
The same measure for `O=C(C=Cc1ccc(Cl)cc1)NCCCn1cncn1` [Example 29, 3-(4-chlorophenyl)-N--[3-(1H--1,2,4-triazol-1-yl)propyl]-2-propenamide]: 137 mm Hg; for `O=C(NCCCn1cncn1)c1ccc(I)cc1` [Example 27, 4-Iodo-N-[3-(1H-1,2,4-triazol-1-yl)propyl]benzamide]: 128 mm Hg.
The same measure for `O=C(NCCCn1cncn1)c1ccc(Br)cc1` [Example 23, 4-bromo-N--[3-(1H--1,2,4-triazol-1-yl)propyl]benzamide]: 147 mm Hg; for `O=C1c2ccccc2C(=O)N1CCCCn1cncn1` [2-[4-(1H-1,2,4-triazol-1-yl)butyl]-1H-isoindol-1,3(2H)-dione]: 119 mm Hg.
`O=C(Cc1cccc2ccccc12)NCCCCn1cncn1` [N--[4-(1H--1,2,4-triazol-1-yl)butyl]-1-naphthalene acetamide, fumarate]: the “MABP (mean arterial blood pressure)” value was found to be 134 mm Hg.
Consider `O=C(NCCCCn1cncn1)c1ccc(Br)cc1` [Example 8, 4-bromo-N--[4-(1H--1,2,4-triazol-1-yl)butyl]benzamide], for which the “MABP (mean arterial blood pressure)” value is given as 137 mm Hg.
The same measure for `Cc1ccc(C(=O)NCCCn2cncn2)cc1` [Example 21, 4-methyl-N--[3-(1H--1,2,4-triazol-1-yl)propyl]benzamide]: 145 mm Hg; for `N#Cc1ccc(C(=O)NCCCn2cncn2)cc1` [Example 19, 4-cyano-N--[3-(1H--1,2,4-triazol-1-yl)propyl]benzamide]: 119 mm Hg.
The same measure for `CN(C)c1ccc(C(=O)NCCCn2cncn2)cc1` [Example 37, 4-(dimethylamino)-N--[3-(1H--1,2,4-triazol-1-yl)propyl]benzamide]: 117 mm Hg.
The same measure for `CC(C)(C)c1ccc(C(=O)NCCCn2cncn2)cc1` [Example 13, 4-(1,1-dimethylethyl)-N--[3-(1H--1,2,4-triazol-1-yl)propyl]benzamide]: 123 mm Hg.
